Data as given in patent US10590422B2, “Anticancer therapeutic intervention” (PHYZAT BIOPHARMACEUTICALS, LDA., priority 2017, dated 2020).

Experiments:
[1] = test system: LAT1 mRNA; experiment: LAT1 gene expression (RT-qPCR) after LAT1 gene silencing in human colon cancer HTC-116 cells; type: cell-based; conditions: treatment 6 h
Description: (§1) SK-HEP-1, T24, HT-1080 and HCT-116 cell lines were maintained in a humidified atmosphere of 5% CO2 at 37° C. SK-HEP-1 cells were grown in RPMI-1640 (Sigma, St. Louis, Mo.) supplemented with 20% fetal bovine serum (FBS) (Gibco, UK), 100 U/mL penicillin G, 0.25 μg/mL amphotericin B, 100 μg/mL streptomycin (Gibco, UK), 25 mM sodium bicarbonate (Merck, Germany) and 25 mM N-2-hydroxyethylpiperazine-N′-2-ethanosulfonic acid (HEPES) (Sigma, St. Louis, Mo.). T24 and HT-1080 cells were grown, respectively, in Dulbecco's Modified Eagle's Medium (DMEM)—high glucose (Sigma, St. Louis, Mo.) and DMEM—low glucose (Sigma, St. Louis, Mo.), supplemented with 10% FBS (Gibco, UK), 100 U/mL penicillin G, 0.25 μg/mL amphotericin B, 100 μg/mL streptomycin (Gibco, UK), 25 mM sodium bicarbonate (Merck, Germany) and 25 mM HEPES (Sigma, St. Louis, Mo.). HCT-116 cells were grown in McCoy's 5A (Sigma, St. Louis, Mo.) supplemented with 10% FBS (Gibco, UK), 100 U/mL penicillin G, 0.25 μg/mL amphotericin B, 100 μg/mL streptomycin (Gibco, UK), 25 mM sodium bicarbonate (Merck, Germany) and 25 mM HEPES (Sigma, St. Louis, Mo.). For all cell lines the medium was changed every 2 days, and cells reached confluence 3-4 days after initial seeding. For subculturing, cells were dissociated with 0.25% trypsin-ethylenediaminetetraacetic acid (EDTA) (Sigma, St. Louis, Mo.), split 1:15 or 1:20 and subcultured in a 21-cm^2 growth area (Sarstedt, Germany).
Total RNA was isolated and purified using the SV Total RNA Isolation System (Promega, USA) according to manufacturer's instructions. RNA quality and concentration were verified in the NanoDrop ND1000 Spectrophotometer (Thermo Scientific, USA), and RNA integrity and genomic DNA contamination were evaluated by agarose gel electrophoresis. Total RNA (1 μg) was converted into cDNA using the Maxima Scientific First Strand cDNA Synthesis Kit for RT-qPCR (Thermo Scientific, USA), according to instructions. The following protocol was used: 1st step, 10 min at 25° C.; 2nd step, 15 min at 50° C.; 3rd step, 5 min at 85° C. cDNA was used for qPCR analysis using Maxima SYBR Green qPCR Master Mix (Thermo Scientific, USA) in the StepOnePlus instrument (Applied Biosystems, USA). QuantiTect Primer Assay for LAT1 and ASCT2 and for the endogenous control gene GAPDH (Quiagen, Germany) were used. The qPCR reaction was performed in 96-well PCR plates (Sarstedt, Germany) as follows: one cycle of 10 min at 95° C., followed by 40 PCR cycles at 95° C. 15 s and 60° C. 60 s. […] No template controls were always evaluated for each target gene. Quantification cycle (Cq) values were generated automatically by the StepOnePlus 2.3 Software and the ratio of the target gene was expressed in comparison to the endogenous control gene GAPDH.
(§2) Cells were plated in 24-well (Sarstedt, Germany) or 6-well plates (Sarstedt, Germany) or 96-well plates with black walls clear bottom (BD Biosciences, USA) and incubated 24 h under normal growth conditions. siRNAs against LAT1 and transfection agent were diluted at desired concentrations and mixed according to transfection agent manufacturer's instructions. The mixture was incubated 20 min at RT for siRNA-complex formation, after which it was added to the cells and incubated at 37° C., 5% CO2. After the incubation period, serum and antibiotic was restored and cells were further incubated at normal conditions for the desired time points until evaluation of LAT1 activity or LAT1 expression (immunoblotting and RT-qPCR).

[2] = test system: LAT1; experiment: LAT1 activity: [^14C]-L-leucine uptake in fibrosarcoma HT-1080 cells after LAT1 gene silencing; type: cell-based, human; conditions: 5 nM siRNA, treatment 6 h, at 48 h, 0.4% Lipofectamine 2000, FIG. 8A
Description: (§3) Cells were plated in 24-well plates (Sarstedt, Germany) and grown until confluence was reached. On the day of the experiment, cell culture medium was aspirated and cells were preincubated for 15 min in Hanks' medium (NaCl 140 mM, KCl 5 mM, MgSO4.7H2O 0.8 mM, K2HPO4 0.33 mM, KH2PO4 0.44 mM, MgCl2.6H2O 1 mM, CaCl2) 0.025 mM, Tris-HCl 9.75 mM, pH 7.4). Uptake was initiated by addition of Hanks' medium with 0.25 μM [^14C]-L-leucine in the absence and in the presence of 3 mM unlabeled L-leucine. During preincubation and incubation cells were continuously shaken and maintained at 37° C. Uptake was terminated after 1 min by rapid removal of uptake solution by means of a vacuum pump connected to a Pasteur pipette, followed by a rapid wash with Hanks' medium. Subsequently, cells were solubilized in 0.1% vol/vol Triton X-100 (dissolved in 5 mM Tris-HCl, pH 7.4), and radioactivity was measured by liquid scintillation counting.
as §2

[3] = test system: human colon cancer HTC-116 cells; experiment: Cell proliferation assay (calcein-AM) in human colon cancer HTC-116 cells; type: cell-based; conditions: for cell proliferation / proliferation: treatment 6 h; for cell proliferation: 72 h exposure, 0.1% Injectin, FIG. 14; for proliferation: at 72 h, 0.17% Lipofectamine 2000 or 0.1% Injectin, FIGS. 19B and 20B
Description: as §1
Cell proliferation was measured using calcein-AM (Thermo Fisher Scientific, USA). The membrane permeant calcein-AM, a nonfluorescent dye, is taken up and converted by intracellular esterases to membrane impermeant calcein, which emits green fluorescence. Cells were plated in 96-well plates with black walls clear bottom (BD Biosciences, USA) and incubated 24 h under normal growth conditions. Cells were incubated with test items at 37° C., 5% C02. After the incubation period, serum and antibiotic was restored and cells were further incubated at normal conditions during 72 h. After treatment with test substances or vehicle, cells were washed twice with Hanks' medium and loaded with 2 μM calcein-AM in Hanks' medium, at 37° C. for 30 min. Fluorescence was measured at 485 nm excitation and 530 nm emission wavelengths in a microplate spectrofluorometer (Gemini EM, Molecular Devices). Nine consecutive fluorescence measurements are performed per well, to allow fluorescence readings in the whole area of the well, which was then considered for the calculation of mean fluorescence per well. To determine minimum staining for calcein (calceinmin), eight wells were treated with ethanol 30 min before calcein-AM addition. The percent cell number is calculated as [(calceinsample)/(calceincontrol)]×100.

[4] = molecular target: T1, ASCT2 (Homo sapiens, UniProt Q15758); experiment: Sodium-dependent [^14C]-L-alanine uptake in carcinoma cells, sensitivity to unlabelled L-alanine; type: cell-based; conditions: epithelial carcinoma cells; 3 mM unlabelled L-alanine; FIGS. 3E-3H
T1 construct: recognized the presence of LAT1 and ASCT2 in all cancer cell lines; endogenous in cells
T1 sequence (Q15758 1-541): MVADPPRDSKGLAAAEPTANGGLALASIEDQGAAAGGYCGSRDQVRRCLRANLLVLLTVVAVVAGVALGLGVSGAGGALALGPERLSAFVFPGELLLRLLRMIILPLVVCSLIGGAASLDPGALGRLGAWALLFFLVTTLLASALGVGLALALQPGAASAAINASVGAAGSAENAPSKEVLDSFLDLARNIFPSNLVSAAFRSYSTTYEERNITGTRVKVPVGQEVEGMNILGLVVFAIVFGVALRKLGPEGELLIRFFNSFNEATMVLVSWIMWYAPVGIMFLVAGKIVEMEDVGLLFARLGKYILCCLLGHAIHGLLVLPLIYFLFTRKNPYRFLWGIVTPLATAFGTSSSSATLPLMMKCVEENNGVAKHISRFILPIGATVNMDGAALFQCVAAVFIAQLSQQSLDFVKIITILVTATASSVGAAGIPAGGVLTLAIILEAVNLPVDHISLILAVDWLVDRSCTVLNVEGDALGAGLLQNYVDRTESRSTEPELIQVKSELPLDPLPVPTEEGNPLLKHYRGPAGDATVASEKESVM
Description: as §3, with “the experiment, Cell culture medium” for “the experiment, cell culture medium”, “Hanks' medium (ChCl 140 mM,” for “Hanks' medium (NaCl 140 mM,”, “initiated by the addition of” for “initiated by addition of”, “0.25 μM [^14C]-L-alanine in the” for “0.25 μM [^14C]-L-leucine in the”, “mM unlabeled L-alanin. During preincubation” for “mM unlabeled L-leucine. During preincubation”

[5] = molecular target: T2, LAT1 (Homo sapiens, UniProt Q01650); experiment: Sodium-independent [^14C]-L-leucine uptake in carcinoma cells, sensitivity to unlabelled L-leucine; type: cell-based; conditions: epithelial carcinoma cells; 3 mM unlabelled L-leucine; FIGS. 3A-3D
T2 construct: recognized the presence of LAT1 and ASCT2 in all cancer cell lines; endogenous in cells
T2 sequence (Q01650 whole entry): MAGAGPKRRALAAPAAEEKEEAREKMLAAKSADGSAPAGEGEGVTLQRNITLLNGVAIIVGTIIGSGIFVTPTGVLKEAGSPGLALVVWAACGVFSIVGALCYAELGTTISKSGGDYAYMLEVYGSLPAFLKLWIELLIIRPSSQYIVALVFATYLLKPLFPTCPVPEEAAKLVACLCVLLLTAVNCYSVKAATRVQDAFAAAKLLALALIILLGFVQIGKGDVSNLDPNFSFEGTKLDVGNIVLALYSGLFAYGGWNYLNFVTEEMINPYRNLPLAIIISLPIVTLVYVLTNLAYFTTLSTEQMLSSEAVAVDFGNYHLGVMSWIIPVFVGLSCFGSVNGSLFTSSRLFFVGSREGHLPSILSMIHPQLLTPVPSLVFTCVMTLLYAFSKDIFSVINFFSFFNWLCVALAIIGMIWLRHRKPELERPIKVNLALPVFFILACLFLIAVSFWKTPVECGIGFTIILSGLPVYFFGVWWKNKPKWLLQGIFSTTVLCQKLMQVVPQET
T2 sequence (P08195 102-630 partner): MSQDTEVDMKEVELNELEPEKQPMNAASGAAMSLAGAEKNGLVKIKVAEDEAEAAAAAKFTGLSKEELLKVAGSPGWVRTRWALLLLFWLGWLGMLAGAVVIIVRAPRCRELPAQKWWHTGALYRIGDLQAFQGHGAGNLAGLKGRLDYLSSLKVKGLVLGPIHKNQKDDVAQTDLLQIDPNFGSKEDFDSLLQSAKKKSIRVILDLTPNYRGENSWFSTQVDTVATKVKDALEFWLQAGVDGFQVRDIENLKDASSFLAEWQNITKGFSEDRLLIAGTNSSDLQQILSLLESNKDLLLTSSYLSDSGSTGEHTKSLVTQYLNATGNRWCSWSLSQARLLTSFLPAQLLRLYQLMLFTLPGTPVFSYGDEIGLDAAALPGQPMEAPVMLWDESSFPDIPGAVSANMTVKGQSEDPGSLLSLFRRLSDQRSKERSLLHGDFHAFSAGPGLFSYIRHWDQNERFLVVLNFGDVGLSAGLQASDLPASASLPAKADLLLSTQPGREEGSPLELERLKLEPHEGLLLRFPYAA
Description: as §3

[6] = 5 or 25 nM siRNA, at 24 h or 48 h, 0.5% Lipofectamine 2000, FIGS. 9A and 9C
[7] = 72 h, 0.17% Lipofectamine 2000 or 0.1% Injectin, FIG. 19A

## 58/162/411 (sense CUUCGCCACCUACCUGCUCAA; antisense UUGAGCAGGUAGGUGGCGAAG; chemistry not given here)
[1]; [6]
  LAT1 mRNA relative abundance: decreased
[1]; [7]
  LAT1 mRNA relative abundance: significantly decreased
[2]
  [^14C]-L-leucine (0.25 μM) uptake at initial rate of uptake (1 min): decreased
[3]
  cell proliferation: decreased
  proliferation: significantly decreased

## 61/165/396 (sense CGUGAACUGCUACAGCGUGAA; antisense UUCACUCUGUAGCAGUUCACG; chemistry not given here)
[1]; [6]
  LAT1 mRNA relative abundance: decreased
[1]; [7]
  LAT1 mRNA relative abundance: significantly decreased
[2]
  [^14C]-L-leucine (0.25 μM) uptake at initial rate of uptake (1 min): decreased
[3]
  cell proliferation: decreased
  proliferation: significantly decreased

## 61/391/392 (chain 1 CGUGAACUGCUACAGCGUGAATT; chain 2 UUCACUCUGUAGCAGUUCACGTT; siRNA; sugars by position and backbone not given here; further chemistry not fully specified)
[1]; [6]
  LAT1 mRNA relative abundance: decreased
[1]; [7]
  LAT1 mRNA relative abundance: significantly decreased
[2]
  [^14C]-L-leucine (0.25 μM) uptake at initial rate of uptake (1 min): decreased
[3]; 5-FU 10 μM, siRNA 25 nM, 72 h, 0.037% Injectin, FIG. 17A
  Effect of 5-fluoruracil upon proliferation in combination with the siRNA: not
[3]
  cell proliferation: decreased
  proliferation: significantly decreased

## C[C@H](N)C(=O)O [L-alanine]
[4]
  Sodium-dependent [^14C]-L-alanine (0.25 μM) uptake at initial rate of uptake (1 min): significantly (P<0.01) reduced

## CC(C)C[C@H](N)C(=O)O [L-leucine]
[5]
  Sodium-independent [^14C]-L-leucine (0.25 μM) uptake at initial rate of uptake (1 min): significantly (P<0.001) reduced
